Assay results from paper PMC6274483, “Novel Selective and Potent EGFR Inhibitor that Overcomes T790M-Mediated Resistance in Non-Small Cell Lung Cancer” (Molecules, 2016).

Assays:
EGFR L858R/T790M = target: T1, EGFR L858R/T790M (Homo sapiens, UniProt P00533, L858R/T790M); assay: EGFR kinase enzymatic assay (ADP-Glo), L858R/T790M mutant; format: biochemical
T1 construct: purchased Promega Corporation V5324
Protocol: Concentrations consisting of suitable levels from 0.1 to 100 nM were used for all of the tested compunds. The experiments were performed according to the instructions of the manufacturer. […] The test was performed in a 384-well plate, and includes the major steps below: (1) perform a 5 μL kinase reaction using 1× kinase buffer (e.g., 1× reaction buffer A); (2) incubate at room temperature for 60 min; (3) add 5 μL of ADP-Glo™ Reagent to stop the kinase reaction and deplete the unconsumed ATP, leaving only ADP and a very low background of ATP; (4) incubate at room temperature for 40 min; (5) add 10 μL of Kinase Detection; (6) reagent to convert ADP to ATP and introduce luciferase and luciferin to detect ATP; (7) incubate at room temperature for 30 min; (8) plate was measured on TriStar® LB942 Multimode Microplate Reader (BERTHOLD TECHNOLOGIES GmbH & Co. KG., Bad Wildbad, Germany) to detect the luminescence (Integration time 0.5–1 s). Curve fitting and data presentations were performed using GraphPad Prism version 5.0 (GraphPad Software, Inc.).

H1299 cells = assay: CCK-8 cell viability, H1299; format: cell-based; conditions: Homo sapiens, NCI-H1299, H1299 (wild-type), read-out: Cellular Antiproliferative Activity (IC50, μM) H1299
Protocol: (§1) All the cell viability assays were performed according to the CCK-8 method. The cells were seeded at a density of 5 to 8 × 10^4 cells/mL in 96-well plates in growth medium supplemented with 10% serum at 37 °C with 5% CO2 for one day. After 12 h of incubation, 100 μL of medium was removed, and 100 μL of sample solution with different concentrations of inhibitor was added and then the cells were incubated for 48 or 72 h. Subsequently, 10 μL of CCK-8 reagent (Biotool Company, Kirchberg, Switzerland, 5.0 mg/mL) dissolved in phosphate-buffered saline (PBS) was added and the cells were incubated for another 4 h. The absorbance was read at 450 nm with a microplate reader (Thermo Fisher Scientific, Waltham, MA, USA). The data were calculated using GraphPad Prim version 5.0.

LO-2 cells = assay: CCK-8 cell viability, LO-2 normal liver cells; format: cell-based; conditions: Homo sapiens, L02, LO-2 normal liver cell line, read-out: Cellular Antiproliferative Activity (IC50, μM) LO-2
Protocol: as §1

H1975 cells [1] = assay: Cell apoptosis, Annexin V-FITC/PI flow cytometry, H1975; format: cell-based, human; conditions: 48 h
Protocol: The H1975 and A431 cells (1 to 5 × 10^5 cells/well) incubated in 6-well plates were treated by different concentrations of inhibitors for 48 h. Then, they were collected and fixed with 70% ethanol at 4 °C overnight. After beening fixed with […], the cells were stained with Annexin V-FITC (5 μL)/propidium iodide (5 μL) and analyzed by flow cytometry assay (Becton-Dickinson, Franklin Lakes, NJ, USA).

A431 cells [2] = assay: Cell apoptosis, Annexin V-FITC/PI flow cytometry, A431; format: cell-based, human; conditions: 48 h
H1975 cells [3] = assay: Cell cycle analysis, PI flow cytometry, H1975; format: cell-based, human; conditions: H1975, 200 nM, 48 h, cell cycle phase
Protocol: (§2) The H1975 and A431 cells at a density of approximately 2 × 10^5 cells/well were incubated in 6-well plates, treated with different concentrations of inhibitors for 48 h, collected and fixed with 70% ethanol at 4 °C overnight. After fixation, the cells were washed with PBS and stained with propidium iodide (PI) for 10 min under subdued light. Stained cells were analyzed by flow cytometry assay (Becton-Dickinson, Franklin Lakes, NJ, USA).

A431 cells [4] = assay: Cell cycle analysis, PI flow cytometry, A431; format: cell-based, human; conditions: 48 h
Protocol: as §2

H1975 cells [5] = assay: Wound healing and transwell assays, H1975; format: cell-based, human
Protocol: The cancer cells were cultured in 6-well plates for 48 h at 37 °C. Wounds were created in the cell monolayer and washed with PBS to remove cell debris, then the cells were treated with different concentrations of inhibitor for 48 h. After that, the dead cells were washed away with PBS, and the images were taken by the fluorescence microscope (OLYMPUS).
Cell migration assay was evaluated by using Boyden chambers containing a transwell membrane filter with an 8 μm size pore (Corning Costa Corp, Cambridge, MA, USA). Prior to the invasion assay, the filter membrane was coated with 60 μL of Matrigel (BD Biosciences, Billerica, MA, USA) at a 1:8 dilution and rehydrated by adding […] serum-free medium to the apical side of the chamber at 37 °C for 0.5 h. The cells (2 × 10^5 cells/well for invasion assay) were seeded to the apical side of the chamber with 200 μL medium with different concentrations of inhibitors, and the basolateral side of the chamber was filled with 600 μL medium containing 10% FBS. After 24 h at 37 °C, the cells adherent to the upper surface of the filter were swept by cotton swabs, then fixed with methanol, stained with crystal violet, and the cells were counted under a microscope in five random fields, irrespective of staining intensity. The images were taken by the fluorescence microscope (OLYMPUS).

H1975 cells [6] = assay: Intracellular ROS generation (DCFH-DA), H1975; format: cell-based, human; conditions: H1975, 24 h
Protocol: The human H1975 and A431 cells at a density of approximately 2 × 10^5 cells/well were plated in a 6-well plate and then treated with different concentrations of inhibitors for 24 h. Then the cells were harvested, resuspended in 1 mL of DCFH-DA ([…]), and the levels of ROS were determined by flow cytometry (Becton-Dickinson, Franklin Lakes, NJ, USA).

H1975 cells [7] = assay: AO/EB and DAPI staining, H1975; format: cell-based, human; conditions: H1975, AO/EB or DAPI staining, 48 h
Protocol: Approximately 2 × 10^5 cells/well of A431 and H1975 cells in 6-well plates were incubated in an incubator for 48 h, then treated with different concentrations of inhibitors for 48 h. After incubation, the cells were washed with PBS twice. Then, total of 20 μL of the solution containing the AO/EB dye mix (1.0 μg/mL of AO and 1.0 μg/mL of EB in PBS) was added to the cells. The apoptotic, necrotic, and live cells were observed and counted under the fluorescent microscope (OLYMPUS, Tokyo, Japan). DAPI staining was performed after being treated as mentioned above. The cells plated in 6-well plates were washed twice with PBS and fixed with 10% formaldehyde for 10 min, then washed with PBS three times. Cells were subsequently incubated in DAPI (1.0 μg/mL) solution at room temperature for 10 min, washed with PBS and examined under a fluorescence microscope (OLYMPUS).

## C=CC(=O)Nc1cccc(Nc2nc(Nc3ccc(CN4CCOCC4)cc3)ncc2Cl)c1 [DY3002, N-(3-((5-chloro-2-(4-((1-morpholino)methyl)phenylamino)-4-pyrimidinyl)amino)phenyl)acrylamide]
EGFR L858R/T790M; EGFR L858R/T790M, ADP-Glo kinase assay
  IC50: 0.71 nM
EGFR L858R/T790M; selectivity index, IC50 WT / IC50 L858R/T790M
  SI(WT:L858R/T790M): 632.0
H1299 cells
  IC50: 4.12 µM
LO-2 cells
  IC50: 4.24 µM
H1975 cells [1]; H1975, 100 nM
  Apoptosis rate (%): 25.7%
H1975 cells [1]; H1975, 200 nM
  Apoptosis rate (%): 72.0%
H1975 cells [1]; H1975, 400 nM
  Apoptosis rate (%): 90.1%
A431 cells [2]; A431, 0.5 μM
  Apoptosis rate (%): 46.1%
A431 cells [2]; A431, 1 μM
  Apoptosis rate (%): 50.8%
A431 cells [2]; A431, 2 μM
  Apoptosis rate (%): 61.6%
H1975 cells [3]
  G0/G1: 91.33%
  S: 5.67%
A431 cells [4]; A431, 2 μM, cell cycle phase
  G0/G1: 75.87%
A431 cells [4]; A431, 0.5, 1 and 2 μM
  cell-cycle arrest: G0/G1 arrest
H1975 cells [5]
  inhibition of cell migration: strongly inhibit migration
H1975 cells [6]
  effect on ROS generation: effectively inhibited ROS generation
H1975 cells [7]
  apoptotic morphology: striking nuclear condensation, membrane blebbing, nuclear fragmentation, and apoptotic bodies
